Patent US20190225650A1, “PEPTIDOMIMETIC MACROCYCLES AND USE THEREOF IN REGULATING HIF1ALPHA” (AILERON THERAPEUTICS, INC., priority 2013, published 2019)
Bridge positions count the residues as written; N and C are the ends. Square brackets hold non-standard residues; d marks the D form. Peptide text beside a SMILES is read from it. S5 = C=CCCC[C@](C)(N)C(=O)O; Nle = CCCC[C@H](N)C(=O)O; Dap = NC[C@H](N)C(=O)O

System: HRE-bla ME-180 cells
Assay: Reporter gene assay (HRE-bla ME-180 HIF reporter, GeneBLAzer)
Assay type: cell-based, human
Details: for EC50: 24 hour normoxia
Method: The following reagents were used:
• DMEM+GutaMAX: (#10569044, Invitrogen) • Black clear bottom plates: (#3603, Costar) • HRE-bla-ME-180 cell line: (#K1644, Invitrogen) • Gene-Blazer reagent & protocol: (#K1096, Invitrogen) • Plate reader: Biotek Synergy 2 • Chetomin: (C9623, Sigma)
4 hours prior to experiment: HRE-bla ME-180 cells were seeded at a density of 20,000 cells/well in a volume of 180 μl in black clear bottom 96-well plates. 180 μl of assay medium was added to the cell-free control wells. Incubation was conducted at 37° C., 5% CO2 for 4 hours.
Diluted chetomin was used as a positive control. Chetomin was diluted in 100% DMSO to a 10 mM stock concentration. A 1 mM stock of chetomin was prepared in 100% DMSO. Then the 1 mM chetomin stock was serially diluted in 1:4 in 100% DMSO. Finally, 50, 12.5, 3.125, 0.78, 0.2, 0.05 μM stock of chetomin in 5% DMSO/water were prepared by adding 114 μL water+6 μL chetomin in DMSO.
Test peptides were diluted before use. The test peptides were diluted in 100% DMSO to a 10 mM stock concentration. Then each 10 mM peptide stock was diluted in 1:3 in 100% DMSO. Finally, 300, 100, 33.3, 11.1, 3.7, 1.2 μM stock of each peptide in 5% DMSO/water were prepared by adding 129.2 μL water+4 μL peptide in DMSO.
20 μl of peptide, chetomin dilution, or DMSO/water control were added to the appropriate wells of a plate to achieve 200 μL final volumes in 0.3% DMSO/media. The plate was first incubated for 18-20 hours in normoxia incubator (37° C. in humidified 5% CO2, 20% O2 atmosphere). Then the plate was transferred to hypoxia incubator for 24 hours (37° C. in humidified 5% CO2, 1% O2 atmosphere)
6× LiveBLAzer™-FRET B/G (CCF4-AM) Substrate Mixture was prepared according to CellSensor™ HRE-bla ME-180 Cell-based Assay Protocol (Invitrogen) and added into each well. Solution A (CCF4-AM) was reconstituted in DMSO to a working concentration of 1 mM, divided in aliquots, and stored at −20° C. The 6× LiveBLAzer-FRET B/G (CCF4-AM) Substrate mixture was prepared by mixing 6 μl of Solution A, 60 μl of Solution B, and 934 μl Solution C.
The plates were removed from incubator and equilibrated to RT for a few minutes. Then 20 μl of 6× Substrate mixture was added to each well. The plates were then incubated at room temperature for 3 hr in the dark and read at 409 Ex/460Em and 409Ex/530Em using the “GeneBlazer-Tungsten with export” program on the Synergy 2.
The average percentage of maximum inhibition was obtained by comparing the peptide treated cells (30 μM) to DMSO vehicle control treated cells. The results are shown in the columns “ME-180 HIF Reporter EC50 (μM) −24 hr normoxia” and “18 h Avg % max inhibition at top conc (HIF Rptr-24 hrsnormoxia) (μM)” of Table 6.

| EC50 | SMILES | 18 h Avg % max inhibition at top conc (HIF Rptr-24 hrs normoxia) (μM) |
| --- | --- | --- |
| > 30 µM | CCCC[C@H](NC(=O)[C@H](CCC(=O)O)NC(=O)[C@@H](NC(=O)[C@H](CCC(=O)O)NC(=O)[C@H](CCC(=O)O)NC(=O)[C@H](CC(=O)O)NC(=O)[C@@H](NC(=O)[C@H](Cc1ccccc1)NC(C)=O)[C@@H](C)CC)C(C)C)C(=O)N[C@@]1(C)CCCC=CCCC[C@@](C)(C(=O)N[C@@H](CCCC)C(=O)N[C@@H](C)C(=O)N[C@@H](CC(C)C)C(=O)N[C@@H](CC(=O)O)C(=O)N[C@@H](CCCNC(=N)N)C(=O)N[C@H](C(N)=O)[C@@H](C)CC)NC(=O)[C@H]([C@@H](C)CC)NC(=O)[C@H](C(C)C)NC(=O)[C@H](CC(C)C)NC1=O [SP-33] (Ac-FIDEEVE[Nle][S5]LVI[S5][Nle]ALDRI-NH2; staple 9-13) | +++ (≤25 but <50: +++) |
| > 30 µM | CCCC[C@H](NC(=O)[C@H](CC(C)C)NC(=O)[C@@H](NC(=O)[C@H](CCC(=O)O)NC(=O)[C@H](CCC(=O)O)NC(=O)[C@H](CC(=O)O)NC(=O)[C@@H](NC(=O)[C@H](Cc1ccccc1)NC(C)=O)[C@@H](C)CC)C(C)C)C(=O)N[C@@]1(C)CCCC=CCCC[C@@](C)(C(=O)N[C@@H](CCCC)C(=O)N[C@@H](C)C(=O)N[C@@H](CC(C)C)C(=O)N[C@@H](CC(=O)O)C(=O)N[C@@H](CCCNC(=N)N)C(=O)N[C@H](C(N)=O)[C@@H](C)CC)NC(=O)[C@H](CCC(=O)O)NC(=O)[C@H](C(C)C)NC(=O)[C@H](CC(C)C)NC1=O [SP-37] (Ac-FIDEEVL[Nle][S5]LVE[S5][Nle]ALDRI-NH2; staple 9-13) | + (<10: +) |
| 5 to 15 µM | CCCC[C@H](NC(=O)[C@H](CC(C)C)NC(=O)[C@@H](NC(=O)[C@H](CN)NC(=O)[C@H](CCC(=O)O)NC(=O)[C@H](CC(=O)O)NC(=O)[C@@H](NC(=O)[C@H](Cc1ccccc1)NC(C)=O)[C@@H](C)CC)C(C)C)C(=O)N[C@@]1(C)CCCC=CCCC[C@@](C)(C(=O)N[C@@H](CCCC)C(=O)N[C@@H](C)C(=O)N[C@@H](CC(C)C)C(=O)N[C@@H](CC(=O)O)C(=O)N[C@@H](CCCNC(=N)N)C(=O)N[C@H](C(N)=O)[C@@H](C)CC)NC(=O)[C@H]([C@@H](C)CC)NC(=O)[C@H](C(C)C)NC(=O)[C@H](CC(C)C)NC1=O [SP-63] (Ac-FIDE[Dap]VL[Nle][S5]LVI[S5][Nle]ALDRI-NH2; staple 9-13) | +++ (≤25 but <50: +++) |
| 15 to 30 µM | CCCC[C@H](NC(=O)[C@H](CC(C)C)NC(=O)[C@@H](NC(=O)[C@H](CCC(=O)O)NC(=O)[C@H](CCC(=O)O)NC(=O)[C@H](CC(=O)O)NC(=O)[C@@H](NC(=O)[C@H](Cc1ccccc1)NC(C)=O)[C@@H](C)CC)C(C)C)C(=O)N[C@@]1(C)CCCC=CCCC[C@@](C)(C(=O)N[C@@H](CCCC)C(=O)N[C@@H](C)C(=O)N[C@@H](CC(C)C)C(=O)N[C@@H](CC(=O)O)C(=O)N[C@@H](CCC(=O)O)C(=O)N[C@H](C(N)=O)[C@@H](C)CC)NC(=O)[C@H]([C@@H](C)CC)NC(=O)[C@H](C(C)C)NC(=O)[C@H](CC(C)C)NC1=O [SP-41] (Ac-FIDEEVL[Nle][S5]LVI[S5][Nle]ALDEI-NH2; staple 9-13) | ++++ (≥50: ++++) |
| 5 to 15 µM | CCCC[C@H](NC(=O)[C@H](CC(C)C)NC(=O)[C@@H](NC(=O)[C@H](C)NC(=O)[C@H](CCC(=O)O)NC(=O)[C@H](CC(=O)O)NC(=O)[C@@H](NC(=O)[C@H](Cc1ccccc1)NC(C)=O)[C@@H](C)CC)C(C)C)C(=O)N[C@@]1(C)CCCC=CCCC[C@@](C)(C(=O)N[C@@H](CCCC)C(=O)N[C@@H](C)C(=O)N[C@@H](CC(C)C)C(=O)N[C@@H](CC(=O)O)C(=O)N[C@@H](CCCNC(=N)N)C(=O)N[C@H](C(N)=O)[C@@H](C)CC)NC(=O)[C@H]([C@@H](C)CC)NC(=O)[C@H](C(C)C)NC(=O)[C@H](CC(C)C)NC1=O [SP-13] (Ac-FIDEAVL[Nle][S5]LVI[S5][Nle]ALDRI-NH2; staple 9-13) | ++++ (≥50: ++++) |
| 5 to 15 µM | CCCC[C@H](NC(=O)[C@H](CC(C)C)NC(=O)[C@@H](NC(=O)[C@H](CCC(=O)O)NC(=O)[C@H](CCC(=O)O)NC(=O)[C@H](CC(=O)O)NC(=O)[C@@H](NC(=O)[C@H](Cc1ccccc1)NC(C)=O)[C@@H](C)CC)C(C)C)C(=O)N[C@@]1(C)CCCC=CCCC[C@@](C)(C(=O)N[C@@H](CCCC)C(=O)N[C@@H](C)C(=O)N[C@@H](CC(C)C)C(=O)N[C@@H](CC(=O)O)C(=O)N[C@@H](CCCNC(=N)N)C(=O)N[C@H](C(N)=O)[C@@H](C)CC)NC(=O)[C@H](C)NC(=O)[C@H](C(C)C)NC(=O)[C@H](CC(C)C)NC1=O [SP-19] (Ac-FIDEEVL[Nle][S5]LVA[S5][Nle]ALDRI-NH2; staple 9-13) | +++ (≤25 but <50: +++) |
| 5 to 15 µM | CCCC[C@H](NC(=O)[C@H](CC(C)C)NC(=O)[C@@H](NC(=O)[C@H](CCC(=O)O)NC(=O)[C@H](CCC(=O)O)NC(=O)[C@H](CC(=O)O)NC(=O)[C@@H](NC(=O)[C@H](Cc1ccccc1)NC(C)=O)[C@@H](C)CC)C(C)C)C(=O)N[C@@]1(C)CCCC=CCCC[C@@](C)(C(=O)N[C@@H](CCCC)C(=O)N[C@@H](C)C(=O)N[C@@H](CC(C)C)C(=O)N[C@@H](C)C(=O)N[C@@H](CCCNC(=N)N)C(=O)N[C@H](C(N)=O)[C@@H](C)CC)NC(=O)[C@H]([C@@H](C)CC)NC(=O)[C@H](C(C)C)NC(=O)[C@H](CC(C)C)NC1=O [SP-23] (Ac-FIDEEVL[Nle][S5]LVI[S5][Nle]ALARI-NH2; staple 9-13) | ++++ (≥50: ++++) |
| 5 to 15 µM | CCCC[C@H](NC(=O)[C@H](CC(C)C)NC(=O)[C@@H](NC(=O)[C@H](CCC(=O)O)NC(=O)[C@H](CCC(=O)O)NC(=O)[C@H](CC(=O)O)NC(=O)[C@@H](NC(=O)[C@H](Cc1ccccc1)NC(C)=O)[C@@H](C)CC)C(C)C)C(=O)N[C@@]1(C)CCCC=CCCC[C@@](C)(C(=O)N[C@@H](CCCC)C(=O)N[C@@H](C)C(=O)N[C@@H](CC(C)C)C(=O)N[C@@H](CC(=O)O)C(=O)N[C@@H](CCCNC(=N)N)C(=O)N[C@H](C(N)=O)[C@@H](C)CC)NC(=O)[C@H]([C@@H](C)CC)NC(=O)[C@H](C)NC(=O)[C@H](CC(C)C)NC1=O [SP-18] (Ac-FIDEEVL[Nle][S5]LAI[S5][Nle]ALDRI-NH2; staple 9-13) | ++++ (≥50: ++++) |
| 5 to 15 µM | CCCC[C@H](NC(=O)[C@]1(C)CCCC=CCCC[C@](C)(NC(=O)[C@H](CC(=O)O)NC(=O)[C@H](CC(C)C)NC(=O)[C@@H](NC(=O)[C@H](CCC(=O)O)NC(=O)[C@H](CCC(=O)O)NC(=O)[C@H](CC(=O)O)NC(=O)[C@@H](NC(=O)[C@H](Cc2ccccc2)NC(C)=O)[C@@H](C)CC)C(C)C)C(=O)N[C@@H](CC(C)C)C(=O)N[C@@H](C(C)C)C(=O)N[C@@H]([C@@H](C)CC)C(=O)N1)C(=O)N[C@@H](C)C(=O)N[C@@H](CC(C)C)C(=O)N[C@@H](CC(=O)O)C(=O)N[C@@H](CCCNC(=N)N)C(=O)N[C@H](C(N)=O)[C@@H](C)CC [SP-34] (Ac-FIDEEVLD[S5]LVI[S5][Nle]ALDRI-NH2; staple 9-13) | ++++ (≥50: ++++) |
| 15 to 30 µM | CC[C@H](C)[C@H](NC(=O)[C@H](CCCNC(=N)N)NC(=O)[C@H](CC(=O)O)NC(=O)[C@H](CC(C)C)NC(=O)CNC(=O)[C@H](CCSC)NC(=O)[C@]1(C)CCCC=CCCC[C@](C)(NC(=O)[C@H](CCSC)NC(=O)[C@H](CC(C)C)NC(=O)[C@@H](NC(=O)[C@H](CCC(=O)O)NC(=O)[C@H](CCC(=O)O)NC(=O)[C@H](CC(=O)O)NC(C)=O)C(C)C)C(=O)N[C@@H](CC(C)C)C(=O)N[C@@H](C(C)C)C(=O)N[C@@H]([C@@H](C)CC)C(=O)N1)C(=O)N[C@@H](CCCCN)C(=O)N[C@@H](CCC(=O)O)C(=O)N[C@@H](CC(C)C)C(=O)N1CCC[C@H]1C(=O)N[C@@H](CCC(=O)O)C(=O)N[C@@H](CC(C)C)C(=O)N[C@@H](Cc1c[nH]c2ccccc12)C(=O)N[C@@H](CC(C)C)C(N)=O [SP-87] (Ac-DEEVLM[S5]LVI[S5]MGLDRIKELPELWL-NH2; staple 7-11) | ++++ (≥50: ++++) |
